From paper PMC3672506, “A useful EGFR-TK ligand for tumor diagnosis with SPECT: development of radioiodinated 6-(3-morpholinopropoxy)-7-ethoxy-4-(3′-iodophenoxy)quinazoline” (Annals of Nuclear Medicine, 2013)
Like-named read-outs stand apart in the source and are kept apart here.

Key:
[1] = target: EGFR-TK in A431 cell membranes (Homo sapiens, UniProt P00533); type: binding
Method: (§1) Assays were carried out as described in the previous section. Crude P2 membrane fractions (A431or NALM6, 0.1 mg of protein, 10 μL) and [^125I]PYK (1–300 nM, 100 μL, 0.74 kBq) were used. […] Specific binding was defined as the difference between the total and non-specific binding. Scatchard plot analysis of the saturation binding data was used to determine the equilibrium dissociation constant (K d) and the maximal number of binding sites (B max).
(§2) The crude P2 membrane fraction from A431 or NAlM6 cells were used in further binding experiments for pharmacological characterization. […] While, in the NALM6 as a negative-EGFR leukemia cell line, [^125I]PYK binding to cell membranes was undetectable.

NALM6 cell membranes = type: binding; details: NALM6, negative-EGFR leukemia cell line
Method: as §1, §2

A431 tumor = experiment: SPECT/CT imaging of A431 tumor-bearing mice; type: in vivo; details: 24 h after injection
Method: The mice underwent SPECT/CT studies when A431 tumors had grown to optimal size (approximately 2 weeks after inoculation). ^125I gamma camera imaging and image processing were performed using a small-animal imaging system with pinhole collimation (aperture diameter = 1 mm, focal length = 9 cm) and a 15- to 45 keV photo peak energy window (PET/SPECT/CT FX system, Gamma Medica Ideas). […] 24 h after injection, SPECT scans were performed at 64 projections over 360° (ROR = 4.5 cm, 60 s/projection). Reconstructed data from SPECT and CT were visualized and coregistered using AMIRA 3.1.
[^125I]PYK-SPECT images of tumors were very clear without interference from radioactivity in peripheral organs.

[2] = type: in vivo; details: normal ddY mice; for Blood radioactivity / Bone radioactivity / Brain radioactivity / Colon radioactivity / Heart radioactivity / Intestine radioactivity / Kidney radioactivity / Liver radioactivity / Lung radioactivity / Muscle radioactivity / Pancreas radioactivity / Skin radioactivity / Spleen radioactivity / Stomach radioactivity / Thyroid radioactivity: i.v.
Method: [^125I]PYK (37 kBq, 74 TBq/mmol) in 0.1 mL saline was injected intravenously into ddY male mice (5 weeks old, 25–30 g, n = 4) via the lateral tail vein. At the desired time (5 min—24 h) interval after administration, the animals were sacrificed by decapitation. Samples of blood and tissues of interest were excised and weighed. Radioactivity was measured using a well-type NaI(Tl) scintillation gamma counter. The results were expressed in terms of percentage of injected dose per gram of blood or tissue.
[^125I]PYK was transported well into various organs and disappeared slowly from the blood. In the liver highest uptake and rapid clearance were observed. The lungs, kidney, heart, pancreas, spleen, and brain uptakes were similar pattern to that of the liver. Furthermore, the increase in [^125I]PYK uptake in the stomach and thyroid as deiodination parameters were not found.

Chain of EGFR-TK in A431 cell membranes (P00533 25-1210): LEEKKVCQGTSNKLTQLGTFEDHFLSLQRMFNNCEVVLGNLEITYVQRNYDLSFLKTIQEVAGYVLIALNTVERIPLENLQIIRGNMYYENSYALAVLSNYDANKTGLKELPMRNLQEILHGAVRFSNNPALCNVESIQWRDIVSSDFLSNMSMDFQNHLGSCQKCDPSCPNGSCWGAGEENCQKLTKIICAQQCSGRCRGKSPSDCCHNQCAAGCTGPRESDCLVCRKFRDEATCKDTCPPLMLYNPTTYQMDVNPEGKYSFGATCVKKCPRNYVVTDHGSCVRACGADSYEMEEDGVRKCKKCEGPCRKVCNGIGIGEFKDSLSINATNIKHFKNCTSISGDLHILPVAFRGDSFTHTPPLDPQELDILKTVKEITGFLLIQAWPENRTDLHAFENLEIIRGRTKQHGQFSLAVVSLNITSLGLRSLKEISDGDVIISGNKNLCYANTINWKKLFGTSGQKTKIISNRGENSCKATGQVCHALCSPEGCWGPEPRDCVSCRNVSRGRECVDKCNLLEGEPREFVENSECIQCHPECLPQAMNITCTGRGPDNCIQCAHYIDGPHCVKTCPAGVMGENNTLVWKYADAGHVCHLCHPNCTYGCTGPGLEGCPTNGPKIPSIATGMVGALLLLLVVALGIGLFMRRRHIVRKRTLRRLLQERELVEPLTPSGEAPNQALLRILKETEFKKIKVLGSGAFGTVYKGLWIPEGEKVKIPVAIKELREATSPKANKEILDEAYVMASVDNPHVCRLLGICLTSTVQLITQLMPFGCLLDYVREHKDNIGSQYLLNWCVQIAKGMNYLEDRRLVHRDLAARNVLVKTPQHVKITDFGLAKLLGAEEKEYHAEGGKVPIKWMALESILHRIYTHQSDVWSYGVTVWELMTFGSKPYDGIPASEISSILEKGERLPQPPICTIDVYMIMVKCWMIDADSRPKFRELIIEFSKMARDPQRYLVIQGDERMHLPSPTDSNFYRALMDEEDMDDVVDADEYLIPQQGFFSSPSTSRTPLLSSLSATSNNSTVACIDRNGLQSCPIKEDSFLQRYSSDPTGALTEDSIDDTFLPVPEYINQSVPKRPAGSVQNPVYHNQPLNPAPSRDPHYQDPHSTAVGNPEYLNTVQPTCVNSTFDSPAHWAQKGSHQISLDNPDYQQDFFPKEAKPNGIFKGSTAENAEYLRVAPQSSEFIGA

CCOc1cc2ncnc(Oc3cccc([125I])c3)c2cc1OCCCN1CCOCC1 [[^125I]PYK]
Bmax ([1]; A431 P2 membranes, Scatchard analysis): 27.0 ± 3.43 pmol/mg protein
Hill's constant value ([1]; A431 membranes): 1.02
binding to cell membranes (NALM6 cell membranes): undetectable
SPECT images of tumors (in words) (A431 tumor): very clear
in vivo stability (deiodination: stomach and thyroid uptake) [2]: good stability
Blood radioactivity ([2]; 5 min after injection): 0.98 ± 0.61 % injected dose per gram tissu
Bone radioactivity ([2]; 5 min after injection): 1.13 ± 0.28 % injected dose per gram tissu
Brain radioactivity ([2]; 5 min after injection): 2.07 ± 0.07 % injected dose per gram tissu
Colon radioactivity ([2]; 5 min after injection): 1.89 ± 0.37 % injected dose per gram tissu
Heart radioactivity ([2]; 5 min after injection): 3.47 ± 0.29 % injected dose per gram tissu
Intestine radioactivity ([2]; 5 min after injection): 4.57 ± 0.63 % injected dose per gram tissu
Kidney radioactivity ([2]; 5 min after injection): 15.1 ± 1.38 % injected dose per gram tissu
Liver radioactivity ([2]; 5 min after injection): 10.5 ± 0.92 % injected dose per gram tissu
Lung radioactivity ([2]; 5 min after injection): 11.89 ± 2.86 % injected dose per gram tissu
Muscle radioactivity ([2]; 5 min after injection): 1.78 ± 0.13 % injected dose per gram tissu
Pancreas radioactivity ([2]; 5 min after injection): 6.95 ± 0.49 % injected dose per gram tissu
Skin radioactivity ([2]; 5 min after injection): 0.68 ± 0.13 % injected dose per gram tissu
Spleen radioactivity ([2]; 5 min after injection): 4.42 ± 0.95 % injected dose per gram tissu
Stomach radioactivity ([2]; 5 min after injection): 2.41 ± 0.59 % injected dose per gram tissu
Thyroid radioactivity ([2]; 5 min after injection): 0.05 ± 0.04 % injected dose per organ
Blood radioactivity ([2]; 15 min after injection): 1.05 ± 0.08 % injected dose per gram tissu
Bone radioactivity ([2]; 15 min after injection): 1.36 ± 0.39 % injected dose per gram tissu
Brain radioactivity ([2]; 15 min after injection): 3.15 ± 1.22 % injected dose per gram tissu
Colon radioactivity ([2]; 15 min after injection): 2.21 ± 0.48 % injected dose per gram tissu
Heart radioactivity ([2]; 15 min after injection): 1.76 ± 0.89 % injected dose per gram tissu
Intestine radioactivity ([2]; 15 min after injection): 5.57 ± 1.69 % injected dose per gram tissu
Kidney radioactivity ([2]; 15 min after injection): 15.6 ± 1.33 % injected dose per gram tissu
Liver radioactivity ([2]; 15 min after injection): 13.9 ± 2.47 % injected dose per gram tissu
Lung radioactivity ([2]; 15 min after injection): 6.85 ± 1.99 % injected dose per gram tissu
Muscle radioactivity ([2]; 15 min after injection): 0.97 ± 0.15 % injected dose per gram tissu
Pancreas radioactivity ([2]; 15 min after injection): 5.52 ± 0.50 % injected dose per gram tissu
Skin radioactivity ([2]; 15 min after injection): 0.91 ± 0.13 % injected dose per gram tissu
Spleen radioactivity ([2]; 15 min after injection): 4.23 ± 0.90 % injected dose per gram tissu
Stomach radioactivity ([2]; 15 min after injection): 3.03 ± 0.36 % injected dose per gram tissu
Thyroid radioactivity ([2]; 15 min after injection): 0.05 ± 0.03 % injected dose per organ
Blood radioactivity ([2]; 30 min after injection): 0.80 ± 0.07 % injected dose per gram tissu
Bone radioactivity ([2]; 30 min after injection): 0.60 ± 0.19 % injected dose per gram tissu
Brain radioactivity ([2]; 30 min after injection): 0.82 ± 0.33 % injected dose per gram tissu
Colon radioactivity ([2]; 30 min after injection): 2.33 ± 0.40 % injected dose per gram tissu
Heart radioactivity ([2]; 30 min after injection): 1.43 ± 0.16 % injected dose per gram tissu
Intestine radioactivity ([2]; 30 min after injection): 9.11 ± 0.57 % injected dose per gram tissu
Kidney radioactivity ([2]; 30 min after injection): 12.6 ± 2.36 % injected dose per gram tissu
Liver radioactivity ([2]; 30 min after injection): 13.3 ± 1.83 % injected dose per gram tissu
Lung radioactivity ([2]; 30 min after injection): 4.40 ± 1.60 % injected dose per gram tissu
Muscle radioactivity ([2]; 30 min after injection): 1.02 ± 0.53 % injected dose per gram tissu
Pancreas radioactivity ([2]; 30 min after injection): 3.42 ± 0.33 % injected dose per gram tissu
Skin radioactivity ([2]; 30 min after injection): 1.02 ± 0.08 % injected dose per gram tissu
Spleen radioactivity ([2]; 30 min after injection): 3.70 ± 1.24 % injected dose per gram tissu
Stomach radioactivity ([2]; 30 min after injection): 3.41 ± 0.37 % injected dose per gram tissu
Thyroid radioactivity ([2]; 30 min after injection): 0.01 ± 0.01 % injected dose per organ
Blood radioactivity ([2]; 1 h after injection): 0.83 ± 0.16 % injected dose per gram tissu
Bone radioactivity ([2]; 1 h after injection): 1.81 ± 2.40 % injected dose per gram tissu
Brain radioactivity ([2]; 1 h after injection): 0.47 ± 0.29 % injected dose per gram tissu
Colon radioactivity ([2]; 1 h after injection): 3.30 ± 0.10 % injected dose per gram tissu
Heart radioactivity ([2]; 1 h after injection): 1.33 ± 0.23 % injected dose per gram tissu
Intestine radioactivity ([2]; 1 h after injection): 15.84 ± 2.63 % injected dose per gram tissu
Kidney radioactivity ([2]; 1 h after injection): 7.94 ± 0.37 % injected dose per gram tissu
Liver radioactivity ([2]; 1 h after injection): 12.3 ± 2.45 % injected dose per gram tissu
Lung radioactivity ([2]; 1 h after injection): 3.42 ± 0.83 % injected dose per gram tissu
Muscle radioactivity ([2]; 1 h after injection): 0.65 ± 0.04 % injected dose per gram tissu
Pancreas radioactivity ([2]; 1 h after injection): 2.47 ± 0.43 % injected dose per gram tissu
Skin radioactivity ([2]; 1 h after injection): 0.99 ± 0.06 % injected dose per gram tissu
Spleen radioactivity ([2]; 1 h after injection): 2.44 ± 0.35 % injected dose per gram tissu
Stomach radioactivity ([2]; 1 h after injection): 4.33 ± 0.76 % injected dose per gram tissu
Thyroid radioactivity ([2]; 1 h after injection): 0.03 ± 0.01 % injected dose per organ
Blood radioactivity ([2]; 3 h after injection): 0.50 ± 0.13 % injected dose per gram tissu
Bone radioactivity ([2]; 3 h after injection): 0.25 ± 0.16 % injected dose per gram tissu
Brain radioactivity ([2]; 3 h after injection): 0.27 ± 0.05 % injected dose per gram tissu
Colon radioactivity ([2]; 3 h after injection): 21.14 ± 5.62 % injected dose per gram tissu
Heart radioactivity ([2]; 3 h after injection): 0.64 ± 0.25 % injected dose per gram tissu
Intestine radioactivity ([2]; 3 h after injection): 14.82 ± 7.80 % injected dose per gram tissu
Kidney radioactivity ([2]; 3 h after injection): 13.80 ± 9.25 % injected dose per gram tissu
Liver radioactivity ([2]; 3 h after injection): 10.94 ± 7.67 % injected dose per gram tissu
Lung radioactivity ([2]; 3 h after injection): 1.75 ± 0.18 % injected dose per gram tissu
Muscle radioactivity ([2]; 3 h after injection): 1.00 ± 1.27 % injected dose per gram tissu
Pancreas radioactivity ([2]; 3 h after injection): 2.18 ± 0.92 % injected dose per gram tissu
Skin radioactivity ([2]; 3 h after injection): 0.47 ± 0.46 % injected dose per gram tissu
Spleen radioactivity ([2]; 3 h after injection): 0.99 ± 0.56 % injected dose per gram tissu
Stomach radioactivity ([2]; 3 h after injection): 0.59 ± 0.23 % injected dose per gram tissu
Thyroid radioactivity ([2]; 3 h after injection): 0.05 ± 0.04 % injected dose per organ
Blood radioactivity ([2]; 6 h after injection): 0.29 ± 0.03 % injected dose per gram tissu
Bone radioactivity ([2]; 6 h after injection): 0.23 ± 0.02 % injected dose per gram tissu
Brain radioactivity ([2]; 6 h after injection): 0.11 ± 0.03 % injected dose per gram tissu
Colon radioactivity ([2]; 6 h after injection): 22.10 ± 7.54 % injected dose per gram tissu
Heart radioactivity ([2]; 6 h after injection): 0.63 ± 0.21 % injected dose per gram tissu
Intestine radioactivity ([2]; 6 h after injection): 8.53 ± 1.84 % injected dose per gram tissu
Kidney radioactivity ([2]; 6 h after injection): 3.58 ± 0.52 % injected dose per gram tissu
Liver radioactivity ([2]; 6 h after injection): 4.70 ± 0.36 % injected dose per gram tissu
Lung radioactivity ([2]; 6 h after injection): 1.77 ± 0.22 % injected dose per gram tissu
Muscle radioactivity ([2]; 6 h after injection): 0.25 ± 0.04 % injected dose per gram tissu
Pancreas radioactivity ([2]; 6 h after injection): 1.53 ± 0.38 % injected dose per gram tissu
Skin radioactivity ([2]; 6 h after injection): 0.75 ± 0.46 % injected dose per gram tissu
Spleen radioactivity ([2]; 6 h after injection): 1.08 ± 0.25 % injected dose per gram tissu
Stomach radioactivity ([2]; 6 h after injection): 0.73 ± 0.60 % injected dose per gram tissu
Thyroid radioactivity ([2]; 6 h after injection): 0.03 ± 0.02 % injected dose per organ
Blood radioactivity ([2]; 24 h after injection): 0.08 ± 0.04 % injected dose per gram tissu
Bone radioactivity ([2]; 24 h after injection): 0.04 ± 0.02 % injected dose per gram tissu
Brain radioactivity ([2]; 24 h after injection): 0.02 ± 0.06 % injected dose per gram tissu
Colon radioactivity ([2]; 24 h after injection): 15.91 ± 6.59 % injected dose per gram tissu
Heart radioactivity ([2]; 24 h after injection): 0.22 ± 0.04 % injected dose per gram tissu
Intestine radioactivity ([2]; 24 h after injection): 3.76 ± 1.38 % injected dose per gram tissu
Kidney radioactivity ([2]; 24 h after injection): 0.62 ± 0.10 % injected dose per gram tissu
Liver radioactivity ([2]; 24 h after injection): 0.52 ± 0.10 % injected dose per gram tissu
Lung radioactivity ([2]; 24 h after injection): 0.38 ± 0.09 % injected dose per gram tissu
Muscle radioactivity ([2]; 24 h after injection): 0.03 ± 0.01 % injected dose per gram tissu
Pancreas radioactivity ([2]; 24 h after injection): 0.35 ± 0.05 % injected dose per gram tissu
Skin radioactivity ([2]; 24 h after injection): 0.17 ± 0.11 % injected dose per gram tissu
Spleen radioactivity ([2]; 24 h after injection): 0.24 ± 0.02 % injected dose per gram tissu
Stomach radioactivity ([2]; 24 h after injection): 0.16 ± 0.04 % injected dose per gram tissu
Thyroid radioactivity ([2]; 24 h after injection): 0.01 ± 0.00 % injected dose per organ
